Data: patent US12369579B2, “Antimicrobial agents and compositions and uses thereof” (KODA Therapeutics, LLC, priority 2019, dated 2025)
Converted amounts (≈) assume the structure as drawn.

Each molecule was assayed on H. pylori (assay: MIC by broth microdilution assay against H. pylori). Conditions: Helicobacter pylori, 72 h.
Format: cell-based
Procedure: (§1) The MIC and MBC of the compounds can be measured with the following procedure: In vitro antibacterial activity was tested using the broth microdilution assay. Experiments were carried out in triplicate using Müller-Hinton broth supplemented with 10% FBS in 96-well plates at a total assay volume of 100 μL. Antimicrobials were tested against H. pylori. Two-fold serial dilutions were prepared between the concentration range 0.01-64 μg/mL. An initial bacterial inoculum was adjusted to OD600=0.06 and incubated with test compounds at 37° C. for 3 days in humidified incubators under the 5% CO2 atmosphere. OD600 was measured and the lowest concentration of compound that inhibited bacterial growth was reported as the MIC. See Gwisai T, et al. Repurposing niclosamide as a versatile antimicrobial surface coating against device-associated, hospital-acquired bacterial infections. Biomed Mater. 2017; 12(4):045010. The pH was adjusted to acidic condition with 1 N HCL. The minimal bactericidal concentration (MBC) was determined by plating 5 μL of broth culture from the MIC assay onto Müller-Hinton agar (BD Biosciences) supplemented with 10% FBS. After 72 h, the lowest concentration at which colonies were not observed was reported as the MBC.

SMILES	MIC [µg/mL]
CCOP(=O)(N/N=C/c1ccc([N+](=O)[O-])o1)Nc1ccccc1 (stereo not shown) [Compound 1]	1 to 2 (≈ 2.96 to 5.91 µM)
CCOP(=O)(N/N=C/c1ccc([N+](=O)[O-])o1)Nc1ccc(C)cc1 (stereo not shown) [Compound 2]	2 (≈ 5.68 µM)
CCOP(=O)(N/N=C/c1ccc([N+](=O)[O-])o1)Nc1ccc(OC)cc1 (stereo not shown) [Compound 3]	2 (≈ 5.43 µM)
CCOP(=O)(N/N=C/c1ccc([N+](=O)[O-])o1)Nc1ccc(Cl)cc1 (stereo not shown) [Compound 4]	1 (≈ 2.68 µM)
CCOP(=O)(N/N=C/c1ccc([N+](=O)[O-])o1)Nc1ccc(Cl)c(Cl)c1 (stereo not shown) [Compound 5]	1 (≈ 2.46 µM)
CCOP(=O)(N/N=C/c1ccc([N+](=O)[O-])o1)Nc1ccc2c(c1)OCO2 (stereo not shown) [Compound 6]	2 (≈ 5.23 µM)
CCOP(=O)(NCc1ccccc1)N/N=C/c1ccc([N+](=O)[O-])o1 (stereo not shown) [Compound 7]	2 (≈ 5.68 µM)
O=[N+]([O-])c1ccc(/C=N/N=C/c2ccc([N+](=O)[O-])o2)o1 [Compound 14]	4 (≈ 14.4 µM)
CCOP(=O)(N/N=C1\CCCc2oc([N+](=O)[O-])cc21)Nc1ccccc1 (stereo not shown) [Compound 15]	0.25 (≈ 0.661 µM)

Same assay, conditions: Helicobacter pylori, 72 h; H. pylori; Müller-Hinton broth with 10% FBS, 37° C., 3 days; read-out: MIC

MIC [µg/mL]	SMILES
0.01 (≈ 0.0274 µM)	CC1(C)S[C@@H]2[C@H](NC(=O)[C@H](N)c3ccc(O)cc3)C(=O)N2[C@H]1C(=O)O [Amoxicillin, reference compound]
4 (≈ 10.2 µM)	Cc1ccc(NP(=O)(N/N=C/c2ccc([N+](=O)[O-])o2)N2CCOCC2)cc1 (stereo not shown) [Compound 8]
4	Br.Nc1nc2c(s1)CCc1oc([N+](=O)[O-])cc1-2 [Compound 9]
4	Br.CNc1nc2c(s1)CCc1oc([N+](=O)[O-])cc1-2 [Compound 10]
1 (≈ 3.51 µM)	O=C(/C=C/c1ccccc1)N/N=C/c1ccc([N+](=O)[O-])o1 [Compound 11]
1 (≈ 5.52 µM)	O=C1CCCc2oc([N+](=O)[O-])cc21 [Compound 12]
0.25 (≈ 1.05 µM)	NC(=O)N/N=C1/CCCc2oc([N+](=O)[O-])cc21 [Compound 13]
0.25 (≈ 0.768 µM)	O=C(/C=C/c1ccccc1)N/N=C1\CCCc2oc([N+](=O)[O-])cc21 [Compound 16]
0.25 (≈ 0.764 µM)	O=C(Nc1ccc([N+](=O)[O-])cc1Cl)c1cc(Cl)ccc1O [Niclosamide, reference compound]

Each molecule was assayed on H. pylori (assay: MBC by plating broth culture from the MIC assay onto Müller-Hinton agar). Conditions: Helicobacter pylori, 72 h.
Format: cell-based
Procedure: as §1

SMILES	MBC [µg/mL]
CCOP(=O)(N/N=C/c1ccc([N+](=O)[O-])o1)Nc1ccccc1 (stereo not shown) [Compound 1]	2 (≈ 5.91 µM)
CCOP(=O)(N/N=C/c1ccc([N+](=O)[O-])o1)Nc1ccc(C)cc1 (stereo not shown) [Compound 2]	2 (≈ 5.68 µM)
CCOP(=O)(N/N=C/c1ccc([N+](=O)[O-])o1)Nc1ccc(OC)cc1 (stereo not shown) [Compound 3]	2 (≈ 5.43 µM)
CCOP(=O)(N/N=C/c1ccc([N+](=O)[O-])o1)Nc1ccc(Cl)cc1 (stereo not shown) [Compound 4]	1 (≈ 2.68 µM)
CCOP(=O)(N/N=C/c1ccc([N+](=O)[O-])o1)Nc1ccc(Cl)c(Cl)c1 (stereo not shown) [Compound 5]	1 (≈ 2.46 µM)
CCOP(=O)(N/N=C/c1ccc([N+](=O)[O-])o1)Nc1ccc2c(c1)OCO2 (stereo not shown) [Compound 6]	2 (≈ 5.23 µM)
CCOP(=O)(NCc1ccccc1)N/N=C/c1ccc([N+](=O)[O-])o1 (stereo not shown) [Compound 7]	2 (≈ 5.68 µM)
O=[N+]([O-])c1ccc(/C=N/N=C/c2ccc([N+](=O)[O-])o2)o1 [Compound 14]	4 (≈ 14.4 µM)
CCOP(=O)(N/N=C1\CCCc2oc([N+](=O)[O-])cc21)Nc1ccccc1 (stereo not shown) [Compound 15]	0.25 (≈ 0.661 µM)

Same assay, conditions: Helicobacter pylori; H. pylori; lowest concentration without colonies after 72 h; read-out: MBC

SMILES	MBC [µg/mL]
CC1(C)S[C@@H]2[C@H](NC(=O)[C@H](N)c3ccc(O)cc3)C(=O)N2[C@H]1C(=O)O [Amoxicillin, reference compound]	0.025 (≈ 0.0684 µM)
Cc1ccc(NP(=O)(N/N=C/c2ccc([N+](=O)[O-])o2)N2CCOCC2)cc1 (stereo not shown) [Compound 8]	4 (≈ 10.2 µM)
Br.Nc1nc2c(s1)CCc1oc([N+](=O)[O-])cc1-2 [Compound 9]	4
Br.CNc1nc2c(s1)CCc1oc([N+](=O)[O-])cc1-2 [Compound 10]	4
O=C(/C=C/c1ccccc1)N/N=C/c1ccc([N+](=O)[O-])o1 [Compound 11]	1 (≈ 3.51 µM)
O=C1CCCc2oc([N+](=O)[O-])cc21 [Compound 12]	1 (≈ 5.52 µM)
NC(=O)N/N=C1/CCCc2oc([N+](=O)[O-])cc21 [Compound 13]	0.25 (≈ 1.05 µM)
O=C(/C=C/c1ccccc1)N/N=C1\CCCc2oc([N+](=O)[O-])cc21 [Compound 16]	0.25 (≈ 0.768 µM)
O=C(Nc1ccc([N+](=O)[O-])cc1Cl)c1cc(Cl)ccc1O [Niclosamide, reference compound]	0.5 (≈ 1.53 µM)

What follows are molecules tested on H. pylori strain 49503 (assay: MIC against H. pylori strain 49503). Conditions: not given.
Format: cell-based, Helicobacter pylori
Procedure: as §1

SMILES	MIC
CCOP(=O)(N/N=C/c1ccc([N+](=O)[O-])o1)Nc1ccccc1 (stereo not shown) [Compound 1]	1.0-2.0 μ/mL
CCOP(=O)(N/N=C1\CCCc2oc([N+](=O)[O-])cc21)Nc1ccccc1 (stereo not shown) [Compound 15]	0.25 µg/mL (≈ 0.661 µM)

What follows are molecules tested on H. pylori strain 43504 (assay: MIC against H. pylori strain 43504). Conditions: not given.
Format: cell-based, Helicobacter pylori
Procedure: as §1

SMILES	MIC [µg/mL]
CCOP(=O)(N/N=C/c1ccc([N+](=O)[O-])o1)Nc1ccccc1 (stereo not shown) [Compound 1]	2.0 (≈ 5.91 µM)
NC(=O)N/N=C1/CCCc2oc([N+](=O)[O-])cc21 [Compound 13]	0.5 (≈ 2.1 µM)
CCOP(=O)(N/N=C1\CCCc2oc([N+](=O)[O-])cc21)Nc1ccccc1 (stereo not shown) [Compound 15]	1.0 (≈ 2.64 µM)
O=C(/C=C/c1ccccc1)N/N=C1\CCCc2oc([N+](=O)[O-])cc21 [Compound 16]	1.0 (≈ 3.07 µM)

These molecules were tested on H. pylori strain 51932 (assay: MIC against H. pylori strain 51932). Conditions: not given.
Format: cell-based, Helicobacter pylori
Procedure: as §1

SMILES	MIC [µg/mL]
CCOP(=O)(N/N=C/c1ccc([N+](=O)[O-])o1)Nc1ccccc1 (stereo not shown) [Compound 1]	1.0 (≈ 2.96 µM)
CCOP(=O)(N/N=C1\CCCc2oc([N+](=O)[O-])cc21)Nc1ccccc1 (stereo not shown) [Compound 15]	0.25 (≈ 0.661 µM)

The molecules below were run on H. pylori (assay: MIC in acidic pH environments). Conditions: Helicobacter pylori, pH 5.5.
Format: cell-based
Procedure: as §1
MIC data in acidic pH is shown in Table 6 for selected compounds identified by compound number.

SMILES	MIC [µg/mL]
CCOP(=O)(N/N=C/c1ccc([N+](=O)[O-])o1)Nc1ccccc1 (stereo not shown) [Compound 1]	0.25 (≈ 0.739 µM)
CCOP(=O)(N/N=C1\CCCc2oc([N+](=O)[O-])cc21)Nc1ccccc1 (stereo not shown) [Compound 15]	0.06 (≈ 0.159 µM)

Same assay, conditions: Helicobacter pylori, pH 5.5; read-out: MIC

MIC [µg/mL]	SMILES
0.06 (≈ 0.252 µM)	NC(=O)N/N=C1/CCCc2oc([N+](=O)[O-])cc21 [Compound 13]
0.06 (≈ 0.184 µM)	O=C(/C=C/c1ccccc1)N/N=C1\CCCc2oc([N+](=O)[O-])cc21 [Compound 16]

Same assay, conditions: Helicobacter pylori, pH 6

SMILES	MIC [µg/mL]
CCOP(=O)(N/N=C/c1ccc([N+](=O)[O-])o1)Nc1ccccc1 (stereo not shown) [Compound 1]	1 (≈ 2.96 µM)
CCOP(=O)(N/N=C1\CCCc2oc([N+](=O)[O-])cc21)Nc1ccccc1 (stereo not shown) [Compound 15]	0.25 (≈ 0.661 µM)

Same assay, conditions: Helicobacter pylori, pH 6.5

SMILES	MIC [µg/mL]
CCOP(=O)(N/N=C/c1ccc([N+](=O)[O-])o1)Nc1ccccc1 (stereo not shown) [Compound 1]	1 (≈ 2.96 µM)
CCOP(=O)(N/N=C1\CCCc2oc([N+](=O)[O-])cc21)Nc1ccccc1 (stereo not shown) [Compound 15]	0.25 (≈ 0.661 µM)

Same assay, conditions: Helicobacter pylori, pH 6.5; read-out: MIC

MIC [µg/mL]	SMILES
0.25 (≈ 1.05 µM)	NC(=O)N/N=C1/CCCc2oc([N+](=O)[O-])cc21 [Compound 13]
0.25 (≈ 0.768 µM)	O=C(/C=C/c1ccccc1)N/N=C1\CCCc2oc([N+](=O)[O-])cc21 [Compound 16]

Same assay, conditions: Helicobacter pylori, pH 7

SMILES	MIC [µg/mL]
CCOP(=O)(N/N=C/c1ccc([N+](=O)[O-])o1)Nc1ccccc1 (stereo not shown) [Compound 1]	1 (≈ 2.96 µM)
CCOP(=O)(N/N=C1\CCCc2oc([N+](=O)[O-])cc21)Nc1ccccc1 (stereo not shown) [Compound 15]	0.25 (≈ 0.661 µM)

Same assay, conditions: Helicobacter pylori; pH 6.0; read-out: MIC

MIC [µg/mL]	SMILES
0.25 (≈ 1.05 µM)	NC(=O)N/N=C1/CCCc2oc([N+](=O)[O-])cc21 [Compound 13]
0.25 (≈ 0.768 µM)	O=C(/C=C/c1ccccc1)N/N=C1\CCCc2oc([N+](=O)[O-])cc21 [Compound 16]

Same assay, conditions: Helicobacter pylori; pH 7.0; read-out: MIC

MIC [µg/mL]	SMILES
0.25 (≈ 1.05 µM)	NC(=O)N/N=C1/CCCc2oc([N+](=O)[O-])cc21 [Compound 13]
0.25 (≈ 0.768 µM)	O=C(/C=C/c1ccccc1)N/N=C1\CCCc2oc([N+](=O)[O-])cc21 [Compound 16]

Each molecule was assayed on H. pylori (assay: Antibacterial synergy by checkerboard assay (FICI) with antibiotics and proton pump inhibitors). Conditions: tested with amoxicillin, clarithromycin, omeprazole and pantoprazole; synergistic effect = FICI ≤0.5.
Format: cell-based, Helicobacter pylori
Procedure: Compounds 1, 13, 15, and 16 were tested with Amoxxicillin, Clarithromycin, Omeprazole, and Pantoprazole.
Antibacterial synergy was tested using the checkerboard assay. The compound of interest was combined with antibiotics and proton pump inhibitors (PPIs). In this series of experiments cultures of H. pylori were adjusted to OD600=0.06 and added to compound pairs that had been serially diluted in the same 96-well plates, vertically for one compound and horizontally for the other. Assays were carried out in triplicate as described in the antibacterial susceptibility assay sub-section. The combinatorial inhibitory concentration was indicated by the FICI. FICI=MICA combination/MICA alone+MICB combination/MICB alone.

SMILES	Combination effect with secondary agent (FIG. 1)
CCOP(=O)(N/N=C/c1ccc([N+](=O)[O-])o1)Nc1ccccc1 (stereo not shown) [Compound 1]	synergistic effect
NC(=O)N/N=C1/CCCc2oc([N+](=O)[O-])cc21 [Compound 13]	synergistic effect
CCOP(=O)(N/N=C1\CCCc2oc([N+](=O)[O-])cc21)Nc1ccccc1 (stereo not shown) [Compound 15]	synergistic effect
O=C(/C=C/c1ccccc1)N/N=C1\CCCc2oc([N+](=O)[O-])cc21 [Compound 16]	synergistic effect
